Results reported in patent publication US20260041770A1, “CELL MEMBRANE-ATTACHED HYALURONIC ACID-CD44 SPECIFIC BINDING REACTION POLYMER COMPOUND TO ENHANCE THE IMMUNE-ANTICANCER FUNCTION OF NATURAL KILLER CELLS” (DONGGUK UNIVERSITY INDUSTRY-ACADEMIC COOPERATION FOUNDATION, priority 2023, published 2026).

Test system: NK92-mi NK cells
Experiment: NK cell surface modification efficiency (fluorescence intensity, cell coating efficacy)
Format: cell-based
Details: polymer 1.0 mg/mL, 30 minutes at room temperature
Procedure: A polymer compound (HA-PEG-DSPE) was dissolved in MEM alpha at a concentration of 1.0 mg/mL, and 5×10^5 NK92-mi NK cells were evenly mixed with 100 μL of solution. The surface of NK cell was modified (HA-PEG-DSPE bound to NK cell) at room temperature for 30 minutes and then washed twice with MEM alpha. Cells were then lysed with 250 μL of RIPA buffer and stored at 4° C. for 30 minutes. Finally, 250 μL of distilled water was added, diluted, and transferred to 96-well to measure fluorescence intensity at 480/535 nm.

| Substance | fluorescence intensity on NK cell | cell coating efficacy of NK cell |
| --- | --- | --- |
| PEG600 | fluorescence intensity is not substantially measured |  |
| PEG2000 | strong fluorescence intensity is measured on the surface of NK cell | higher coating efficacy (cell coating efficacy, ng/10^5 cells) of NK cell compared to the polymer compound using PEG600 and PEG5000 |
